Our source for the IC90 values is patent US12421211B2, “Heterocyclic compounds” (Hoffmann-La Roche Inc., priority 2021, dated 2025).

What is called IC90 is the concentration at which the effect reaches the 90% level.

Molecules are shown by their SMILES. Structures can show the parent of a compound that is named as a salt.

The subject of one assay is Acinetobacter baumannii ATCC17961. Description: Antimicrobial susceptibility testing: 90% growth inhibitory concentration (IC90) determination. The assay is classed as cell-based. To be noted: Acinetobacter baumannii, ATCC17961, 16 h, 90% growth inhibitory concentration, Acinetobacter baumannii ATCC17961, Iso-Sensitest broth, OD 600 nm over 16 h; read-out: ATCC 17961 IC90. The procedure, abridged:
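A. baumannii ATCC17961 at ~5×10^5 CFU/ml in Iso-Sensitest broth exposed to 10-point twofold dilutions (e.g. 50–0.097 μM final), 35±2° C. OD600 read every 20 minutes over 16h; IC50 and IC90 derived from inhibition during logarithmic growth.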
In the case of `Cc1n[nH]cc1-c1ccc(-c2cnc(C(=O)Nc3ccc(C(=O)N4CCN(C(=O)C[N+](C)(C)C)CC4)c(Cl)c3)n2C)cc1` [Example F51, [2-[4-[2-chloro-4-[[1-methyl-5-[4-(3-methyl-1H-pyrazol-4-yl)phenyl]imidazole-2-carbonyl]amino]benzoyl]piperazin-1-yl]-2-oxo-ethyl]-trimethyl-ammonium; formate], the concentration for an effect of 90% (IC90) amounted to 210 nM.

Regarding `COCCn1ncc(-c2ccc(-c3cnc(C(=O)Nc4ccc(C(=O)NCC5CCN(C(=O)CN(C)C)CC5)c(Cl)c4)n3C)c(F)c2F)c1C` [Example D33, N-[3-chloro-4-[[1-[2-(dimethylamino)acetyl]-4-piperidyl]methylcarbamoyl]phenyl]-5-[2,3-difluoro-4-[1-(2-methoxyethyl)-5-methyl-pyrazol-4-yl]phenyl]-1-methyl-imidazole-2-carboxamide; 2,2,2-trifluoroacetic acid], the IC90 was 210 nM.

`COCCn1ncc(-c2ccc(-c3cnc(C(=O)Nc4ccc(C(=O)N5CCC(C(=O)N6CC[N+](C)(C)CC6)CC5)c(Cl)c4)n3C)c(F)c2F)c1C` [Example A10, N-[3-chloro-4-[4-(4,4-dimethylpiperazin-4-ium-1-carbonyl)piperidine-1-carbonyl]phenyl]-5-[2,3-difluoro-4-[1-(2-methoxyethyl)-5-methyl-pyrazol-4-yl]phenyl]-1-methyl-imidazole-2-carboxamide; formate]: the concentration for an effect of 90% (IC90) was determined as 98 nM.

As to `COc1cccc(Cn2cc(-c3ccc(-c4cnc(C(=O)Nc5ccc(C(=O)N6CCN(C(=O)C7CC[N+](C)(C)CC7)CC6)c(Cl)c5)n4C)c(F)c3F)c(C)n2)n1` [Example F55, N-[3-chloro-4-[4-(1,1-dimethylpiperidin-1-ium-4-carbonyl)piperazine-1-carbonyl]phenyl]-5-[2,3-difluoro-4-[1-[(6-methoxy-2-pyridyl)methyl]-3-methyl-pyrazol-4-yl]phenyl]-1-methyl-imidazole-2-carboxamide; formate], the IC90 was 270 nM.

Take `Cc1c(-c2ccc(-c3cnc(C(=O)Nc4ccc(C(=O)N5CCN(C(=O)C6CC[N+](C)(C)CC6)CC5)c(Cl)c4)n3C)c(F)c2F)cnn1CCNC(=O)NC(C)(C)C` [Example H4, 5-[4-[1-[2-(tert-butylcarbamoylamino)ethyl]-5-methyl-pyrazol-4-yl]-2,3-difluoro-phenyl]-N-[3-chloro-4-[4-(1,1-dimethylpiperidin-1-ium-4-carbonyl)piperazine-1-carbonyl]phenyl]-1-methyl-imidazole-2-carboxamide; formate]: the IC90 was found to be 160 nM.

Consider `Cc1nn(CC(=O)Nc2nccs2)cc1-c1ccc(-c2cnc(C(=O)Nc3ccc(C(=O)N4CCN(C(=O)C5CC[N+](C)(C)CC5)CC4)c(Cl)c3)n2C)c(F)c1F` [Example G10, N-[3-chloro-4-[4-(1,1-dimethylpiperidin-1-ium-4-carbonyl)piperazine-1-carbonyl]phenyl]-5-[2,3-difluoro-4-[3-methyl-1-[2-oxo-2-(thiazol-2-ylamino)ethyl]pyrazol-4-yl]phenyl]-1-methyl-imidazole-2-carboxamide; formate], for which the IC90 turned out to be 120 nM.

`Cc1nn(CC(=O)Nc2ccnnc2)cc1-c1ccc(-c2cnc(C(=O)Nc3ccc(C(=O)N4CCN(C(=O)C5CC[N+](C)(C)CC5)CC4)c(Cl)c3)n2C)c(F)c1F` [Example G33, N-[3-chloro-4-[4-(1,1-dimethylpiperidin-1-ium-4-carbonyl)piperazine-1-carbonyl]phenyl]-5-[2,3-difluoro-4-[3-methyl-1-[2-oxo-2-(pyridazin-4-ylamino)ethyl]pyrazol-4-yl]phenyl]-1-methyl-imidazole-2-carboxamide; formate]: the concentration for an effect of 90% (IC90) was 440 nM.

For the compound `COCCn1ncc(-c2ccc(-c3cnc(C(=O)Nc4ccc(C(=O)N5CCN(C(=O)C6CC[N+](C)(C)CC6)CC5)c(Cl)c4)n3C)c(OC)c2)c1C` [Example F18, N-[3-chloro-4-[4-(1,1-dimethylpiperidin-1-ium-4-carbonyl)piperazine-1-carbonyl]phenyl]-5-[2-methoxy-4-[1-(2-methoxyethyl)-5-methyl-pyrazol-4-yl]phenyl]-1-methyl-imidazole-2-carboxamide; formate], the 90% effect concentration (IC90) was 1100 nM.

On to `COCCn1cc(-c2ccc(-c3cnc(C(=O)Nc4ccc(C(=O)N5CCN(C(=O)[C@H]6C[C@H](O)C[N+]6(C)C)CC5)c(Cl)c4)n3C)c(F)c2F)c(C)n1` [Example D8, N-[3-chloro-4-[4-[(2R,4S)-4-hydroxy-1,1-dimethyl-pyrrolidin-1-ium-2-carbonyl]piperazine-1-carbonyl]phenyl]-5-[2,3-difluoro-4-[1-(2-methoxyethyl)-3-methyl-pyrazol-4-yl]phenyl]-1-methyl-imidazole-2-carboxamide; formate], for which the concentration for an effect of 90% (IC90) worked out at 300 nM.

For the compound `Cc1n[nH]c(C)c1-c1ccc(-c2cnc(C(=O)Nc3ccc(C(=O)N4CCN(C(=O)C[N+](C)(C)C)CC4)c(Cl)c3)n2C)cc1` [Example F52, [2-[4-[2-chloro-4-[[5-[4-(3,5-dimethyl-1H-pyrazol-4-yl)phenyl]-1-methyl-imidazole-2-carbonyl]amino]benzoyl]piperazin-1-yl]-2-oxo-ethyl]-trimethyl-ammonium; 2,2,2-trifluoroacetate], the IC90 was found to be 270 nM.

For `COCCn1nc(C)c(-c2ccc(-c3cnc(C(=O)Nc4ccc(C(=O)N5CCN(C(=O)[C@@H]6C[C@@H](O)C[N+]6(C)C)CC5)c(Cl)c4)n3C)c(F)c2F)c1C` (racemic) [Example D3, N-[3-chloro-4-[4-[(2S,4R)-4-hydroxy-1,1-dimethyl-pyrrolidin-1-ium-2-carbonyl]piperazine-1-carbonyl]phenyl]-5-[2,3-difluoro-4-[1-(2-methoxyethyl)-3,5-dimethyl-pyrazol-4-yl]phenyl]-1-methyl-imidazole-2-carboxamide; formate], the 90% effect concentration (IC90) stood at 390 nM.

On to `COCCn1cc(-c2ccc(-c3cnc(C(=O)Nc4ccc(C(=O)N5CCN(C(=O)C6CC[N+](C)(C)CC6)CC5)c(Cl)c4)n3C)c(F)c2F)c(N)n1` [Example F26, 5-[4-[3-amino-1-(2-methoxyethyl)pyrazol-4-yl]-2,3-difluoro-phenyl]-N-[3-chloro-4-[4-(1,1-dimethylpiperidin-1-ium-4-carbonyl)piperazine-1-carbonyl]phenyl]-1-methyl-imidazole-2-carboxamide; formate], for which the 90% effect concentration (IC90) stood at 1400 nM.

As for `Cc1c(-c2ccc(-c3cnc(C(=O)Nc4ccc(C(=O)N5CCN(C(=O)C6CC[N+](C)(C)CC6)CC5)c(Cl)c4)n3C)c(F)c2F)cnn1CCNC(=O)c1ccccn1` [Example H1, N-[2-[4-[4-[2-[[3-chloro-4-[4-(1,1-dimethylpiperidin-1-ium-4-carbonyl)piperazine-1-carbonyl]phenyl]carbamoyl]-3-methyl-imidazol-4-yl]-2,3-difluoro-phenyl]-5-methyl-pyrazol-1-yl]ethyl]pyridine-2-carboxamide formate], the concentration for an effect of 90% (IC90) came out at 150 nM.

As for `COCCn1ncc(-c2ccc(-c3cnc(C(=O)Nc4ccc(C(=O)NCC5CCNCC5)c(Cl)c4)n3C)c(F)c2F)c1C` [Example E10, N-[3-chloro-4-(4-piperidylmethyl-carbamoyl)phenyl]-5-[2,3-difluoro-4-[1-(2-methoxyethyl)-5-methyl-pyrazol-4-yl]phenyl]-1-methyl-imidazole-2-carboxamide; 2,2,2-trifluoroacetic acid], the IC90 is 170 nM.

As to `COCCn1ncc(-c2ccc(-c3cnc(C(=O)Nc4ccc(C(=O)N5CCN(C(=O)C6CC[N+](CC(=O)O)(CC7CNC7)CC6)CC5)c(Cl)c4)n3C)c(F)c2Cl)c1C` (stereo not drawn) [Example B28, 2-[1-(azetidin-3-ylmethyl)-4-[4-[2-chloro-4-[[5-[3-chloro-2-fluoro-4-[1-(2-methoxyethyl)-5-methyl-pyrazol-4-yl]phenyl]-1-methyl-imidazole-2-carbonyl]amino]benzoyl]piperazine-1-carbonyl]piperidin-1-ium-1-yl]acetic acid; formate], the IC90 is 230 nM.

The assay is the same for the next values; noted with them: Acinetobacter baumannii, ATCC17961, 16 h, read-out: ATCC 17961 IC90.
On to `COCCn1cc(-c2ccc(-c3cnc(C(=O)Nc4ccc(C(=O)N5CCN(C(=O)C[N+]6(C)C[C@@H](O)[C@H](O)C6)CC5)c(Cl)c4)n3C)c(F)c2F)c(C)n1` [Example C10, N-[3-chloro-4-[4-[2-[(3R,4R)-3,4-dihydroxy-1-methyl-pyrrolidin-1-ium-1-yl]acetyl]piperazine-1-carbonyl]phenyl]-5-[2,3-difluoro-4-[1-(2-methoxyethyl)-3-methyl-pyrazol-4-yl]phenyl]-1-methyl-imidazole-2-carboxamide; formate], for which the 90% effect concentration (IC90) was 280 nM.

`COCCn1cc(-c2ccc(-c3cnc(C(=O)Nc4ccc(C(=O)N5CCN(C(=O)C6CC[N+](C)(CC(N)=O)CC6)CC5)c(Cl)c4)n3C)c(F)c2F)c(C)n1` (stereo not drawn) [Example B1, N-[4-[4-[1-(2-amino-2-oxo-ethyl)-1-methyl-piperidin-1-ium-4-carbonyl]piperazine-1-carbonyl]-3-chloro-phenyl]-5-[2,3-difluoro-4-[1-(2-methoxyethyl)-3-methyl-pyrazol-4-yl]phenyl]-1-methyl-imidazole-2-carboxamide; formate]: the concentration for an effect of 90% (IC90) amounted to 190 nM.

In the case of `Cc1c(-c2cnc(C(=O)Nc3ccc(C(=O)N4CCN(C(=O)C5CC[N+](CC(=O)O)(CC6CNC6)CC5)CC4)c(Cl)c3)n2C)ccc(-c2cnn(CCOC(F)F)c2C)c1F` (stereo not drawn) [Example N2, 2-[1-(azetidin-3-ylmethyl)-4-[4-[2-chloro-4-[[5-[4-[1-[2-(difluoromethoxy)ethyl]-5-methyl-pyrazol-4-yl]-3-fluoro-2-methyl-phenyl]-1-methyl-imidazole-2-carbonyl]amino]benzoyl]piperazine-1-carbonyl]piperidin-1-ium-1-yl]acetic acid; formate], the 90% effect concentration (IC90) was 183 nM.
